Experimental data: patent US20040122089A1, “Novel eicosanoid analgesics” (priority 2001, published 2004)
Read-outs that look alike come from different tables or passages of the source.

Legend:
[1] = system: anandamide membrane transporter (AMT); assay type: cell-based, rat; details: [14C]AEA uptake, RBL-2H3 cells
Description: (§1) The effect of compounds on the enzymatic hydrolysis of [^14C] AEA (6 μM) was studied by using membranes prepared from N18TG2 cells incubated with increasing concentrations of compounds in 50 mM Tris-HCL, pH 9, for 30 min at 37° C. [^14C] Ethanolamine produced from [^14C] AEA hydrolysis was quantified by scintillation spectroscopy and used to measure fatty acid amide hydrolase (FAAH) activity. The effect of compounds on the uptake of AEA by RBL-2H3 cells was studied with a procedure analogous to that described in Melck, ibid., and modified as described in Hilliard et al., J. Neurochem. 69:631-638 (1997). Cells were incubated with [^14C] AEA (4μM) for 5 min. at 37° C., in the presence or absence of varying concentrations of the inhibitors. Residual [1^4C] AEA in the incubation media after extraction with CHCl3/CH30H (2:1 by volume) was used as a measure of the AEA that was taken up by cells.
In consideration of the potent inhibition of the AMT previously observed with arvanil and its derivatives (see Melck, ibid), the seven compounds were also tested for their inhibitory effect on [^4C] […] Thus, the results in Table 1 confirm the existence of a partial overlap between the ligand recognition properties of VR1 receptors and the AMT (14.24).

AMT = assay type: cell-based, rat; details: RBL-2H3 cells; read-out: AMT IC50
Description: AEA. Cells were incubated with [^14C] AEA for 5 min at 37° C., in the presence or absence of varying concentrations of the inhibitors. Residual [^14C] AEA in the incubation media after extraction with CHCl3/CH3OH 2:1 (by vol.), determined by scintillation counting of the lyophilized organic phase, was used as a measure of the AEA that was taken up by cells.
CP55940 from whole rat brain membranes.

CB2 receptors = biological target: T1, CB2 receptors (Rattus norvegicus, UniProt Q9QZN9); test: CB2 binding, displacement of [3H]WIN55,212-2 from rat spleen membranes
T1 construct: rat spleen membranes, which contain mostly CB2 receptors; from tissue; host or cells: rat spleen membranes
T1 sequence (Q9QZN9 1-360): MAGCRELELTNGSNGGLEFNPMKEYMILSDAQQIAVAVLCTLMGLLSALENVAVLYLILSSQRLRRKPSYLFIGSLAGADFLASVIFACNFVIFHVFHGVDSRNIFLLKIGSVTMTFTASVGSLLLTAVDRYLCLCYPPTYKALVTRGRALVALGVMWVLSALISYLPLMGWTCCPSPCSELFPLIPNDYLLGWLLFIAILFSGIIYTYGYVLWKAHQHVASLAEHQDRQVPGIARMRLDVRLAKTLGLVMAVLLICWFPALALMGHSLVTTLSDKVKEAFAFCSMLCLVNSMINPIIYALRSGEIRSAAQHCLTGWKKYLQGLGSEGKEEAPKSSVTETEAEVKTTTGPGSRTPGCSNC
Description: (§2) For CB1 receptor binding, [^3H]CP-55,940 (Kd=[…]) was incubated with P2 membranes from whole rat brains as described in Compton et al., J. Pharm. Exp. Ther. 265:218-226 (1993). Displacement curves were generated by incubating drugs with 1 nM of [^3H]CP-55,940. The assays were performed in triplicate, and the results represent the combined data from three individual experiments. A separate set of experiments were conducted in which phenylmthylsulfonylfluoride (PMSF) was added at a concentration of 100 μm in order to prevent possible metabolism of the analogs. CB2 binding assays were performed as described in Melek et al., ibid. In all cases, Ki values were calculated applying the Cheng-Prusoff equation to the IC50 values (obtained by GraphPad) for the displacement of the bound radioligand by increasing concentrations of the test compounds.
(§3) In Table 1, affinity for CB1 and CB2 receptors was measured in displacement assays carried out using rat brain or spleen membranes and [^3H]CP 55,940 or […], respectively. Potency at human VR1 was established by measuring the stimulatory activity of the compounds on the Ca^2+ intracellular concentration in HEK cells transfected with cDNA encoding the human VR1 receptor. Efficacy at VR1 was measured by expressing the effect of a maximal concentration of each compound (usually 10 μM) as percent of the maximal possible effect obtained with 4 μM ionomycin. Data are means ±SEM of at least n=3 separate determinations. *Ki was determined in the presence of PMSF.
The hydroxy analog is much less CB1 vs. CB2 selective in both series.

[2] = biological target: T2, fatty acid amide hydrolase (FAAH) (Mus musculus, UniProt O08914); test: [14C]AEA hydrolysis by N18TG2 cell membranes; assay type: biochemical
T2 construct: membranes prepared from N18TG2 cells; endogenous in cells; host or cells: N18TG2 cell membranes
T2 sequence (O08914 1-579): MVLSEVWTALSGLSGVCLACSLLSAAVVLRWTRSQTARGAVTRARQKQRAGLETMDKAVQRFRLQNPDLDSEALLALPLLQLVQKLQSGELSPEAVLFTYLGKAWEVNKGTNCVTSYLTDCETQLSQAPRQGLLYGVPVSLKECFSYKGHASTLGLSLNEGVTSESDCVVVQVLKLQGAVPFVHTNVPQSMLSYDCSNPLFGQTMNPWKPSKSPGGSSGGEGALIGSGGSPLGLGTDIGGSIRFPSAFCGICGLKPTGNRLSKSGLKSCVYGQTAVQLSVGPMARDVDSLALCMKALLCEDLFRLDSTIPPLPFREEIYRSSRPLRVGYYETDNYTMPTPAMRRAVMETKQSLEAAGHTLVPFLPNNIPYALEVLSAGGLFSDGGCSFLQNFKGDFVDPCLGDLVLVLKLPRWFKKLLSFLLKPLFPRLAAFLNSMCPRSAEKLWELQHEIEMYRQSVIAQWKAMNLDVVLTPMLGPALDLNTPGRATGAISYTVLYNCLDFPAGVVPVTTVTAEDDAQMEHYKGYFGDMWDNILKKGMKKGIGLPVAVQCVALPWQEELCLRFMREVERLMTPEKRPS
Description: as §1
Accordingly, when the compounds were tested for their capability of inhibiting [^14C] […] This is in agreement with previous observations that Me-AEA, DMH-derivatives of AEA and arvanil are poor substrates for FAAH. The two exceptions were O-1856 and O-1895, which did inhibit the hydrolysis of [^14C] AEA, although not very potently.

CB1 receptors = CB1 receptors (Rattus norvegicus, UniProt P20272); test: CB1 receptor binding, displacement of [3H]CP-55,940 from rat brain P2 membranes (Example 2); design: from tissue; host or cells: whole rat brain membranes; details: for Ki: rat brain membranes
Description: as §2, §3

mice = test: Mouse 'tetrad' of tests after i.v. administration (Example 2); details: for ED50: Mus musculus, iv
human VR1 receptor = human VR1 receptor (Homo sapiens, UniProt Q8NER1); test: Ca2+ influx (Fluo-3) in HEK-hVR1 cells (Example 2); assay type: cell-based; design: expressed in transfected cells; host or cells: HEK 293 cells (HEK-hVR1); details: for VR1 efficacy: maximal concentration (usually 10 μM), percent of effect of 4 μM ionomycin
Description: N18TG2 and RBL-2H3 cells were grown as described in Melck et al, Bioch. Biophys. Res. Commun. 262:275-284 (1999). Ionomycin was purchased from Sigma. DMH-arvanil, and six substituted dimethylpentyl (DMP) derivatives of arvanil and met-AEA were synthesized as described in Example 1.
HEK-hVR1 cells were prepared and loaded as described in De Petrocellis, et al., FEBS Lett. 483:52-56 (2000). Experiments were carried out by measuring fluorescence at 25° C. […] Capsazepine (1-5 μM) was added 30 minu. Before the test compounds.
as §3

[3] = read-out: Average ED50 for the four effects
[4] = read-out: R.I. (relative immobility) ED50
[5] = read-out: R.T. (rectal temperature) ED50
[6] = read-out: S.A. (spontaneous activity) ED50
[7] = read-out: T.F. (tail-flick) ED50
[8] = CB1 (Ki, nM), determined in the presence of PMSF, [3H]CP 55,940, PMSF 100 μM
[9] = CB1 (Ki, nM), [3H]CP 55,940, without PMSF
[10] = VR1 (EC50, nM), Ca2+ in HEK cells with human VR1
[11] = VR1 EC50, HEK cells with human VR1

Sequence of human VR1 receptor (Q8NER1 whole entry): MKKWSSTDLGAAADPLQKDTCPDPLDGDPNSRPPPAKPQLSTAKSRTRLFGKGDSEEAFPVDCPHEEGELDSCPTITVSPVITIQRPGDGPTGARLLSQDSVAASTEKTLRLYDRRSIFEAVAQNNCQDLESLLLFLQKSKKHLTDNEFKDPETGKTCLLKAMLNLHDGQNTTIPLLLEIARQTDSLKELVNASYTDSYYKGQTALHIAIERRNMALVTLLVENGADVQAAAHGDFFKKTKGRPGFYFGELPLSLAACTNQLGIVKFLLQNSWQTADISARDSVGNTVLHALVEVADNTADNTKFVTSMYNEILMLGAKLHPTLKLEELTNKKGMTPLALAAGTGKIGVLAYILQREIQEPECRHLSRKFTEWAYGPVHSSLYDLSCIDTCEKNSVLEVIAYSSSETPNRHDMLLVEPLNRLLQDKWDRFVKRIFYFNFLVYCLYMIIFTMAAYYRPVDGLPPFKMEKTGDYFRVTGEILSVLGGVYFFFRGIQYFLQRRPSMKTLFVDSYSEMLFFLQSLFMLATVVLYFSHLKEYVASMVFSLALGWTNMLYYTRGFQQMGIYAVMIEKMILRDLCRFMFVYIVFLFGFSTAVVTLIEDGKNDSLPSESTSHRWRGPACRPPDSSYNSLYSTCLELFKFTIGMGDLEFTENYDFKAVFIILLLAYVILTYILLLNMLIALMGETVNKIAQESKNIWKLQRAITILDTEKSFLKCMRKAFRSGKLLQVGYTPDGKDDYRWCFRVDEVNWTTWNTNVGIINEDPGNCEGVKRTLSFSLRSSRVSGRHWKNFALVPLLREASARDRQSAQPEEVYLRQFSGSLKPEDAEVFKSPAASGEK
Sequence of CB1 receptors (P20272 whole entry): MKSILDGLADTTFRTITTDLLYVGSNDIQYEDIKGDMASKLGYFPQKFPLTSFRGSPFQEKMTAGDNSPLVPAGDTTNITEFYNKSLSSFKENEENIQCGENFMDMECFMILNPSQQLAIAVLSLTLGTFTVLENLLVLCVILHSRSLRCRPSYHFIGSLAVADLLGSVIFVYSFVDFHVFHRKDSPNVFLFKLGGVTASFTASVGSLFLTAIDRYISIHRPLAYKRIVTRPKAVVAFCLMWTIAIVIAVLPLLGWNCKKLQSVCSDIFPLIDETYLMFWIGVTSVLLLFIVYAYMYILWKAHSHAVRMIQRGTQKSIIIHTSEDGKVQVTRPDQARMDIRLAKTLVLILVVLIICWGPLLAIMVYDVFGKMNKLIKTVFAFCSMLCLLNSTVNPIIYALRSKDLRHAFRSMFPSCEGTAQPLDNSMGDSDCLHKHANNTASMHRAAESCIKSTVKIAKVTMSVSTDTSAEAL

Structure (SMILES)	IC50 [1] [µM]	ED50 (mice; [3]) [mg/kg]	ED50 (mice; [4]) [mg/kg]	ED50 (mice; [5]) [mg/kg]	ED50 (mice; [6]) [mg/kg]	ED50 (mice; [7]) [mg/kg]	VR1 efficacy (human VR1 receptor) [%]	Ki (CB2 receptors) [µM]	IC50 [2] [µM]	Ki (CB1 receptors; [8]) [nM]	Ki (CB1 receptors; [9]) [nM]	EC50 (human VR1 receptor; [10]) [nM]	other results
CCCCC/C=C\C/C=C\C/C=C\C/C=C\CCCC(=O)Nc1ccc(O)cc1 [AM404, reference compound]	8.1												IC50 (AMT): 8.1 ± 2.6 µM
C[C@H](CO)NC(=O)CCC/C=C\C/C=C\C/C=C\C/C=C\C(C)(C)CCCCO [Compound O-1811, (R)-(16,16-Dimethyl-20-hydroxyeicosa-cis-5,8,11,14-tetraenoyl)-1′-hydroxy-2′-propylamine]	42.5 ± 3.3	0.773	0.663	0.188	0.996	1.24	62.5 ± 0.8						Ki (CB2 receptors; rat spleen membranes, read-out: CB2 (Ki)): 0.8 ± 0.15 µM; IC50 ([2]; [14C]AEA hydrolysis, N18TG2 cell membranes, read-out: FAAH (IC50)): > 50 µM; Ki (CB1 receptors; [3H]CP 55,940, PMSF 100 μM, read-out: CB1 (Ki, nM), determined in the presence of PMSF): 116 ± 11.1 nM; Ki (CB1 receptors; [3H]CP 55,940, without PMSF, read-out: CB1 (Ki)): 115 ± 25.2 nM; fold more potent in reducing body temperature than in increasing tail-flick latency (mice; mice, i.v.): approximately 10 fold; EC50 (human VR1 receptor; Ca2+ in HEK cells with human VR1, read-out: VR1 (EC50)): 724 ± 99 nM
C[C@H](CO)NC(=O)CCC/C=C\C/C=C\C/C=C\C/C=C\C(C)(C)CCCCBr [Compound O-1860, (R)-(20-Bromo-16,16-Dimethyleicosa-cis-5,8,11,14-tetraenoyl)-1′-hydroxy-2′-propylamine]	40 ± 4.5	0.388	0.43	0.44	0.39	0.29	50.0	> 10	> 50	1 ± 0.1	2.2	371 ± 34	EC50 (human VR1 receptor; [11]): 370 nM; VR1 efficacy (human VR1 receptor; listed as 0-1860): 62.1 ± 5.7%
COc1cc(CNC(=O)CCC/C=C\C/C=C\C/C=C\C/C=C\C(C)(C)CCCCC#N)ccc1O [Compound O-1895, 20-Cyano-16,16-dimethyl-eicosa-5,8,11,14-all-cis-tetraenoic acid (4-hydroxy-3-methoxy-benzyl) amide]	38.4 ± 3.1	0.219	0.168	0.179	0.265	0.263	83.1 ± 6.1	5 ± 0.85	18 ± 2.7	44.8 ± 8.3	67 ± 7.5	1 ± 0.2	
C[C@H](CO)NC(=O)CCC/C=C\C/C=C\C/C=C\C/C=C\C(C)(C)CCCCC#N [Compound O-1812, (R)-(20-cyano-16,16-Dimethyleicosa-cis-5,8,11,14-tetraenoyl)-1′-hydroxy-2′-propylamine]	37 ± 4.5	0.025	0.017	0.05	0.017	0.014	50.0	3.87 ± 0.235	> 50	4.6 ± 0.4	3.4 ± 0.5	1950 ± 184	fold more potent on CB1 than on CB2 (CB1 receptors): 1000 fold; fold more potent on CB1 than on VR1 (CB1 receptors): 580 fold; EC50 (human VR1 receptor; [11]): 1900 nM; VR1 efficacy (human VR1 receptor; listed as 0-1812): 50.0 ± 1.6%
COc1cc(CNC(=O)CCC/C=C\C/C=C\C/C=C\C/C=C\C(C)(C)CCCCO)ccc1O [Compound O-1856, 16,16-Dimethyl-20-hydroxy-eicosa-5,8,11,14-all-cis-tetraenoic acid (4-hydroxy-3-methoxy-benzyl) amide]	42	0.873	0.76	1.45	0.47	0.81	83.9 ± 5.1	> 10	14.5 ± 3.4	1070 ± 134	790	5 ± 0.7	IC50 ([1]; listed as 0-1856): 40 ± 3.8 µM
CCCCCCC(C)(C)/C=C\C/C=C\C/C=C\C/C=C\CCCC(=O)NCc1ccc(O)c(OC)c1 [Compound O-1839, 16,16-Dimethyl-docosa-5,8,11,14-all-cis-tetraenoic acid (4-hydroxy-3-methoxy-benzyl) amide]	19.3 ± 2.3	0.078		0.08	0.08	0.074	71.9 ± 4.5	> 10	> 50	201 ± 4.1	262	0.7 ± 0.08	
